Results from the NIST ThermoML archive (doi:10.1016/j.jct.2017.05.020).

Tests used:
[1] = refractive index (Na D-line) (dimensionless); wn = mass fraction of the nth substance listed; conditions: 100 kPa, Liquid, Standard Abbe refractometry
[2] = wn = mass fraction of the nth substance listed; conditions: 100 kPa, Liquid, Vibrating tube method
[3] = refractive index (Na D-line) (dimensionless); conditions: 100 kPa, Liquid, Standard Abbe refractometry
[4] = 100 kPa, Liquid, Vibrating tube method

C=CC[P+](c1ccccc1)(c1ccccc1)c1ccccc1.[Br-] [allyltriphenylphosphonium bromide] + OCCOCCO
Conditions	mass density, w1 = 0.1842 [kg/m3]	mass density, w1 = 0.2653 [kg/m3]	mass density, w1 = 0.4745 [kg/m3]	refractive index, w1 = 0.1842	refractive index, w1 = 0.2653	refractive index, w1 = 0.4745
[1], 293.15 K	–	–	–	1.4817	1.4955	1.5446
[1], 298.15 K	–	–	–	1.4801	1.4938	1.543
[1], 303.15 K	–	–	–	1.4784	1.4921	1.5413
[1], 308.15 K	–	–	–	1.4768	1.4904	1.5396
[1], 313.15 K	–	–	–	1.4752	1.4887	1.538
[1], 318.15 K	–	–	–	1.4735	1.487	1.5363
[1], 323.15 K	–	–	–	1.4718	1.4853	1.5346
[1], 328.15 K	–	–	–	1.4701	1.4836	1.5329
[1], 333.15 K	–	–	–	1.4684	1.4819	1.5313
[1], 338.15 K	–	–	–	1.4668	1.4802	1.5296
[1], 343.15 K	–	–	–	1.4651	1.4785	1.5279
[2], 293.15 K	1146.3	1159.9	1201.1	–	–	–
[2], 298.15 K	1142.7	1156.3	1197.5	–	–	–
[2], 303.15 K	1139.1	1152.6	1193.8	–	–	–
[2], 308.15 K	1135.5	1149	1190.1	–	–	–
[2], 313.15 K	1131.9	1145.3	1186.4	–	–	–
[2], 318.15 K	1128.2	1141.7	1182.7	–	–	–
[2], 323.15 K	1124.6	1138	1179	–	–	–
[2], 328.15 K	1121	1134.4	1175.4	–	–	–
[2], 333.15 K	1117.3	1130.7	1171.7	–	–	–
[2], 338.15 K	1113.6	1127	1167.9	–	–	–
[2], 343.15 K	1109.9	1123.3	1164.2	–	–	–

C=CC[P+](c1ccccc1)(c1ccccc1)c1ccccc1.[Br-] [allyltriphenylphosphonium bromide] + OCCOCCOCCO
Conditions	mass density, w1 = 0.1375 [kg/m3]	mass density, w1 = 0.2033 [kg/m3]	mass density, w1 = 0.3895 [kg/m3]	refractive index, w1 = 0.1375	refractive index, w1 = 0.2033	refractive index, w1 = 0.3895
[1], 293.15 K	–	–	–	1.4803	1.4945	1.5314
[1], 298.15 K	–	–	–	1.4786	1.4927	1.5297
[1], 303.15 K	–	–	–	1.4769	1.4909	1.528
[1], 308.15 K	–	–	–	1.4752	1.4892	1.5263
[1], 313.15 K	–	–	–	1.4735	1.4874	1.5245
[1], 318.15 K	–	–	–	1.4717	1.4857	1.5228
[1], 323.15 K	–	–	–	1.47	1.4839	1.5211
[1], 328.15 K	–	–	–	1.4683	1.4822	1.5193
[1], 333.15 K	–	–	–	1.4666	1.4804	1.5176
[1], 338.15 K	–	–	–	1.4649	1.4787	1.5158
[1], 343.15 K	–	–	–	1.4632	1.4769	1.5141
[2], 293.15 K	1146.2	1159.2	1190.8	–	–	–
[2], 298.15 K	1142.5	1155.5	1187.1	–	–	–
[2], 303.15 K	1138.8	1151.7	1183.4	–	–	–
[2], 308.15 K	1135	1148	1179.7	–	–	–
[2], 313.15 K	1131.3	1144.2	1176.1	–	–	–
[2], 318.15 K	1127.5	1140.5	1172.4	–	–	–
[2], 323.15 K	1123.7	1136.7	1168.7	–	–	–
[2], 328.15 K	1119.9	1133	1165	–	–	–
[2], 333.15 K	1116.1	1129.2	1161.3	–	–	–
[2], 338.15 K	1112.2	1125.5	1157.6	–	–	–
[2], 343.15 K	1108.4	1121.7	1153.9	–	–	–

OCCOCCO [diethylene glycol]
Conditions	mass density, [4] [kg/m3]	refractive index, [3]
293.15 K	1116.5	1.4477
298.15 K	1113	1.4461
303.15 K	1109.4	1.4446
308.15 K	1105.8	1.443
313.15 K	1102.2	1.4415
318.15 K	1098.6	1.44
323.15 K	1095	1.4384
328.15 K	1091.4	1.4368
333.15 K	1087.7	1.4351
338.15 K	1084	1.4334
343.15 K	1080.3	1.4317

OCCOCCO [diethylene glycol] + C=CC[P+](c1ccccc1)(c1ccccc1)c1ccccc1.[Br-]
w2 = 0
Conditions	mass density, [2] [kg/m3]	refractive index, [1]
293.15 K	1116.5	1.4477
298.15 K	1113	1.4461
303.15 K	1109.4	1.4446
308.15 K	1105.8	1.443
313.15 K	1102.2	1.4415
318.15 K	1098.6	1.44
323.15 K	1095	1.4384
328.15 K	1091.4	1.4368
333.15 K	1087.7	1.4351
338.15 K	1084	1.4334
343.15 K	1080.3	1.4317

OCCOCCOCCO [triethylene glycol]
Conditions	mass density, [4] [kg/m3]	refractive index, [3]
293.15 K	1124.6	1.4576
298.15 K	1120.8	1.4558
303.15 K	1116.9	1.4541
308.15 K	1113	1.4523
313.15 K	1109.1	1.4505
318.15 K	1105.2	1.4488
323.15 K	1101.3	1.4469
328.15 K	1097.4	1.445
333.15 K	1093.5	1.4434
338.15 K	1089.6	1.4417
343.15 K	1085.6	1.4399

OCCOCCOCCO [triethylene glycol] + C=CC[P+](c1ccccc1)(c1ccccc1)c1ccccc1.[Br-]
w2 = 0
Conditions	mass density, [2] [kg/m3]	refractive index, [1]
293.15 K	1124.6	1.4576
298.15 K	1120.8	1.4558
303.15 K	1116.9	1.4541
308.15 K	1113	1.4523
313.15 K	1109.1	1.4505
318.15 K	1105.2	1.4488
323.15 K	1101.3	1.4469
328.15 K	1097.4	1.445
333.15 K	1093.5	1.4434
338.15 K	1089.6	1.4417
343.15 K	1085.6	1.4399
